Marks after values point to notes of the source that are not given here.

The subject of assay [1] is pyrethroid-susceptible (Orlando) strain of Aedes aegypti female adult mosquitoes. Description: Spatial repellency, static air repellency chamber, Orlando strain. In kind it is in vivo. The note with it: for EC50 (spatial repellency): 1 hour after introducing treated filter papers. The procedure:
Spatial repellency of pogostone was assessed on pyrethroid-susceptible (Orlando) and pyrethroid-resistant (Puerto Rico) strains of Aedes aegypti female adult mosquitoes. Repellency bioassays were performed using a static air repellency chamber, which has been described previously (Schultz, 2006; Peterson, 2018). Briefly, the repellency chamber consists of a clear glass cylinder 600 mm in length with an inner diameter of roughly 85 mm laying horizontally. One end of the cylinder is capped with an untreated 90-mm filter paper (Whatman No. 1) contained in a 90-mm inner diameter glass petri dish, and sealed with tape to remain closed. The other end is capped in the same manner, except the filter paper has been treated with 1 mL of a 0.5% (w/v) solution of a monoterpenoid ester in acetone, resulting in 78.6 μg/cm^2 of repellent on the filter paper. The solution was added to the filter paper evenly and at a rate such that the evaporation of acetone prevents loss of compound from dripping, and the acetone was allowed to evaporate at room temperature for a further 10 minutes before use for the short-term repellency assay, or for an additional five hours under open air in ambient conditions in the case of long-term repellency studies. Shortly after placing the filter papers on the end of the tube, twenty (not blood fed) female […] mosquitoes were anesthetized with carbon dioxide, and placed into the tube via a 20-mm hole halfway down the length of the tube, and the hole was sealed. This process is performed with as little disturbance to the air in the tube as possible. The distribution of mosquitoes between the treated and untreated sides was then noted at 15, 30, 60, 90, 120, and 150 minutes after placement into the tube. Repellency ratio of Orlando or Puerto Rico mosquitoes was recorded as a proportion of the number of mosquitoes on the treated side of the tube compared to the whole tube [number of treated side/total number throughout entire tube] at 1 hour after introducing the treated filter papers.

Assay [2] concerns Aedes aegypti adult female mosquitoes. Briefly: LD50 of insecticides alone and in combination with sublethal pogostone. The class given is in vivo. The note with it: for Synergism Ratio: LD50 of insecticide alone / LD50 of insecticide in combination with pogostone; for LD50: insecticide alone or with pogostone at sublethal dosage, pogostone effect corrected with Abbott's formula. The text has this:
The dashed line indicates sublethal dosage of pogostone used for synergist experiments in Example 2.
Synergism ratios are presented as the ratio of the LD50 of insecticide alone and the LD50 of insecticide applied in combination with pogostone. The insecticidal effect of pogostone alone is corrected for using Abbott's formula (Equation 1) in all treatments using pogostone.

Assay [3] deals with Aedes aegypti Puerto Rican strain (pyrethroid-resistant). Description: Topical application KD50 and LD50, pyrethroid-resistant strain.
Assay [4] deals with Aedes aegypti Orlando strain (pyrethroid-susceptible). Description: Topical application KD50 and LD50, pyrethroid-susceptible strain.
The test system of assay [5] is house fly strain CAR21 (S). Briefly: Median lethal dose determination, house fly CAR21. In kind it is in vivo. Here is the method:
(§1) 24-hour median lethal dose determinations of pogostone and permethrin were performed in three house fly strains and one stable fly strain. The KS17 resistant strain below is simultaneously resistant to organophosphates, carbamates, and synthetic pyrethroids.
(§2) 48-hour median lethal dose determinations of pogostone and permethrin were performed in three house fly strains. The KS17 resistant strain below is simultaneously resistant to organophosphates, carbamates, and synthetic pyrethroids.

For assay [6], the system named is Stable flies (S). Briefly: Median lethal dose determination, stable fly. In kind it is in vivo. The note with it: 24-hour. Here is the method:
as §1

Assay [7] deals with house fly strain KS17 (R). Description: Median lethal dose determination, house fly KS17. In kind it is in vivo. As to conditions: for LD50: KS17 (R); for RR (resistance ratio): KS17 (R) LD50 divided by susceptible strain LD50, NS = not significantly different. Here is the method: as §1, §2
Assay [8] has as its system house fly strain WHF (R). Briefly: Median lethal dose determination, house fly WHF. As to conditions: for LD50: WHF (R); for RR (resistance ratio): WHF (R) LD50 divided by susceptible strain LD50. In kind it is in vivo. The procedure:
as §1, §2

The test system of assay [9] is pyrethroid-resistant (Puerto Rico) strain of Aedes aegypti female adult mosquitoes. Briefly: Spatial repellency, static air repellency chamber, Puerto Rico strain. In kind it is in vivo. The procedure: Spatial repellency of pogostone was assessed on pyrethroid-susceptible (Orlando) and pyrethroid-resistant (Puerto Rico) strains of Aedes aegypti female adult mosquitoes. Repellency bioassays were performed using a static air repellency chamber, which has been described previously (Schultz, 2006; Peterson, 2018). Briefly, the repellency chamber consists of a clear glass cylinder 600 mm in length with an inner diameter of roughly 85 mm laying horizontally. One end of the cylinder is capped with an untreated 90-mm filter paper (Whatman No. 1) contained in a 90-mm inner diameter glass petri dish, and sealed with tape to remain closed. The other end is capped in the same manner, except the filter paper has been treated with 1 mL of a 0.5% (w/v) solution of a monoterpenoid ester in acetone, resulting in 78.6 μg/cm^2 of repellent on the filter paper. […] Repellency ratio of Orlando or Puerto Rico mosquitoes was recorded as a proportion of the number of mosquitoes on the treated side of the tube compared to the whole tube [number of treated side/total number throughout entire tube] at 1 hour after introducing the treated filter papers.

Turning to `CCN(CC)C(=O)c1cccc(C)c1` [DEET], the “EC50 (spatial repellency)” value in assay [1] is “approximately 10 μg/cm^2”.

With `CN/C(=N/CC1CCOC1)N[N+](=O)[O-]` (stereo not shown) [Dinotefuran], in assay [2], the “Synergism Ratio” value is 6.0* and the “LD50” value was 12.7 ng/mg.

For the compound `Clc1ccc(C(c2ccc(Cl)cc2)C(Cl)(Cl)Cl)cc1` [DDT], in assay [3], the “KD50” value is given as 350 ng/mg and the “LD50” value came to 530 ng/mg. Also, in assay [4], the “KD50” value was 9.5 ng/mg and the “LD50” value was found to be 9.6 ng/mg.

Consider `CC1(C)C(C=C(Cl)Cl)C1C(=O)OCc1cccc(Oc2ccccc2)c1` (stereo not shown) [Permethrin], for which, in assay [2], the “Synergism Ratio” value is 2.6*. For the same compound, the “LD50” value was 0.37 ng/mg in assay [2]; 15.4 ng/fly in assay [5] (24-hour); 14.5 ng/fly in [5] (48-hour); 1.81 ng/fly in assay [6]; more than 5000 ng/fly in [7] (24-hour); >5,000 ng/fly in assay [7] (48-hour). For the same compound, the LD50 in [8] (24-hour) is given as 1,100 ng/fly; in assay [8] (48-hour), 894 ng/fly. Further, the “RR (resistance ratio)” value in assay [7] (24-hour) amounted to 325.1; in [7] (48-hour), 344.8; in assay [8] (24-hour) it was 71.5; in assay [8] (48-hour), 61.7.

For the compound `Cc1cc(O)c(C(=O)CCC(C)C)c(=O)o1` [pogostone], the “KD50” value in assay [3] is recorded as 14 ng/mg; in [4] it was 11 ng/mg. The “LD50” value in assay [3] is 70 ng/mg; in assay [5] (24-hour), 7,600 ng/fly; in assay [5] (48-hour), 6,800 ng/fly; in [6] it was 540 ng/fly; in [7] (24-hour) it was 10,700 ng/fly; in assay [7] (48-hour) it was 6,890 ng/fly. Moreover, the LD50 in assay [8] (24-hour) is given as 13,900 ng/fly; in assay [8] (48-hour), 9,900 ng/fly; in assay [4], 96 ng/mg. The entries for the “RR (resistance ratio)” value in assay [8] (24-hour) and in assay [8] (48-hour) were 1.8 and 1.5, respectively. Besides, the “EC50 (spatial repellency)” value came out at 3.6 μg/cm^2 in [1] and 2.5 μg/cm^2 in assay [9] (1 hour after introducing treated filter papers). Besides, the “spatial repellency (in words)” value in [1] (FIG. 2) and in assay [9] (FIG. 2) was “considerably repellent” each time.

Values taken from patent US20250241308A1, “COMPOSITIONS AND METHODS FOR CONTROLLING PESTS” (PYRONE SYSTEMS, INC., priority 2022, published 2025).
